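The compound was tested at five concentrations on cells cultured in 96-well plates, with a 48-hour exposure period. The concentration for 50% growth inhibition is given as GI50.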 Active and inactive are the calls of the source. Rule as the data show it: active = GI50 up to about 1.1 µM and inactive = higher.
Experiments:
Test in all cases: NCI anticancer screen, dose series, 48 h
LOX IMVI = tested on: LOX IMVI
EKVX = tested on: EKVX
SF-268 = tested on: SF-268
SK-OV-3 = tested on: SK-OV-3
SN12C = tested on: SN12C
SF-539 = tested on: SF-539
UO-31 = tested on: UO-31
CAKI-1 = tested on: CAKI-1
SW-620 = tested on: SW-620
NCI-H460 = tested on: NCI-H460
HCC 2998 = tested on: HCC 2998
HL-60 = tested on: HL-60
RXF 393 = tested on: RXF 393
OVCAR-5 = tested on: OVCAR-5
M14 = tested on: M14
COLO 205 = tested on: COLO 205
HOP-62 = tested on: HOP-62

Row | SMILES | GI50 (LOX IMVI) | GI50 (EKVX) | GI50 (SF-268) | GI50 (SK-OV-3) | GI50 (SN12C) | GI50 (SF-539) | GI50 (UO-31) | GI50 (CAKI-1) | GI50 (SW-620) | GI50 (NCI-H460) | GI50 (HCC 2998) | GI50 (HL-60) | GI50 (RXF 393) | GI50 (OVCAR-5) | GI50 (M14) | GI50 (COLO 205) | GI50 (HOP-62)
1 | O=C1C2c3[nH]c4ccccc4c3C3CCCCCC3C2C(=O)N1c1ccccc1 (stereo not given) | 14.9 µM (inactive) | > 68.1 µM (inactive) | 39.2 µM (inactive) | 15.9 µM (inactive) | 9.71 µM (inactive) | 14.4 µM (inactive) | 38.2 µM (inactive) | 17.4 µM (inactive) | 24.8 µM (inactive) | 11.3 µM (inactive) | > 56.1 µM (inactive) | > 45.6 µM (inactive) | 12.4 µM (inactive) | > 100 µM (inactive) | 15.9 µM (inactive) | > 25.8 µM (inactive) | 16.9 µM (inactive)
2 | CCCNCC(=O)O[C@]1(CC)C(=O)OCc2c1cc1n(c2=O)Cc2cc3ccccc3nc2-1 | 0.0134 µM (active) | 25.1 µM (inactive) | < 0.01 µM (active) | 0.0679 µM (active) | < 0.01 µM (active) | 0.0118 µM (active) | 0.0637 µM (active) | – | – | < 0.01 µM (active) | 0.661 µM (active) | < 0.01 µM (active) | 0.0397 µM (active) | 0.129 µM (active) | 0.0681 µM (active) | 0.908 µM (active) | < 0.01 µM (active)
3 | C/C(CN1C(=O)c2ccccc2C1=O)=N\NS(=O)(=O)c1ccc2ccccc2c1 | > 100 µM (inactive) | > 100 µM (inactive) | 88.5 µM (inactive) | > 100 µM (inactive) | > 100 µM (inactive) | > 100 µM (inactive) | > 100 µM (inactive) | > 100 µM (inactive) | > 100 µM (inactive) | > 100 µM (inactive) | > 100 µM (inactive) | > 100 µM (inactive) | – | > 100 µM (inactive) | > 100 µM (inactive) | > 100 µM (inactive) | > 100 µM (inactive)
4 | CCCCN(CCCC)CCCCNc1c(C)cnc2cc(Cl)ccc12 | 14.2 µM (inactive) | 20 µM (inactive) | 21.6 µM (inactive) | – | 30.6 µM (inactive) | 13.4 µM (inactive) | 9.35 µM (inactive) | – | 20.9 µM (inactive) | 30.9 µM (inactive) | 14.5 µM (inactive) | – | 13.3 µM (inactive) | 2.79 µM (inactive) | 1.94 µM (inactive) | 23.3 µM (inactive) | 21.3 µM (inactive)
5 | C/N=C(\NC(=S)N(C)C)N(C)C | – | > 100 µM (inactive) | > 100 µM (inactive) | > 100 µM (inactive) | > 100 µM (inactive) | > 100 µM (inactive) | > 100 µM (inactive) | > 100 µM (inactive) | > 100 µM (inactive) | > 100 µM (inactive) | > 100 µM (inactive) | > 100 µM (inactive) | > 100 µM (inactive) | > 100 µM (inactive) | > 100 µM (inactive) | – | > 100 µM (inactive)
6 | COC1=CC(=O)C2C(C1=O)C(c1ccc(OC)c(OC)c1)[C@H]2C (stereo not given in full) | 22.9 µM (inactive) | > 100 µM (inactive) | > 100 µM (inactive) | > 100 µM (inactive) | – | > 100 µM (inactive) | > 100 µM (inactive) | 11.5 µM (inactive) | 20 µM (inactive) | > 100 µM (inactive) | > 100 µM (inactive) | 20.5 µM (inactive) | 19.7 µM (inactive) | > 100 µM (inactive) | 19 µM (inactive) | 19.1 µM (inactive) | > 100 µM (inactive)
7 | COCc1c(CO)cnc(C)c1OC1OC(CO)C(O)C(O)C1O (stereo not given) | > 100 µM (inactive) | > 100 µM (inactive) | > 100 µM (inactive) | > 100 µM (inactive) | > 100 µM (inactive) | > 100 µM (inactive) | > 100 µM (inactive) | > 100 µM (inactive) | > 100 µM (inactive) | > 100 µM (inactive) | > 100 µM (inactive) | – | > 100 µM (inactive) | > 100 µM (inactive) | > 100 µM (inactive) | – | > 100 µM (inactive)
8 | NCCCCCS(=O)(=O)O | > 100 µM (inactive) | > 100 µM (inactive) | > 100 µM (inactive) | > 100 µM (inactive) | > 100 µM (inactive) | > 100 µM (inactive) | > 100 µM (inactive) | – | > 100 µM (inactive) | > 100 µM (inactive) | > 100 µM (inactive) | > 100 µM (inactive) | > 100 µM (inactive) | > 100 µM (inactive) | > 100 µM (inactive) | > 100 µM (inactive) | > 100 µM (inactive)
9 | Cn1c2ccccc2c(=O)c2c([N+](=O)[O-])ccc(NCCN)c21 | – | 16.5 µM (inactive) | 11.3 µM (inactive) | 15.7 µM (inactive) | 5.14 µM (inactive) | 8.24 µM (inactive) | 5.64 µM (inactive) | 11.9 µM (inactive) | 4.55 µM (inactive) | 6.92 µM (inactive) | 7.98 µM (inactive) | 4.17 µM (inactive) | 9.62 µM (inactive) | 13.8 µM (inactive) | 14 µM (inactive) | 5.36 µM (inactive) | 14 µM (inactive)
